Measured values: the NIST ThermoML archive (doi:10.1016/j.tca.2016.09.005)

How the values were obtained:
[1] = Liquid; for speed of sound / mass density: 100 kPa; for speed of sound: Frequency=3 MHz, Sing-around technique in a fixed-path interferometer; for mass density: Vibrating tube method; for vapor or sublimation pressure: Closed cell (Static) method
[2] = refractive index (Na D-line) (dimensionless); conditions: 293.15 K; 101.33 kPa; Liquid; Standard Abbe refractometry
[3] = xn = mol fraction of the nth substance listed; conditions: 100 kPa, Liquid, x1 = 1; for mass density: Vibrating tube method; for speed of sound: Frequency=3 MHz, Sing-around technique in a fixed-path interferometer

CO [methanol]
[1]
Conditions	mass density [kg/m3]	speed of sound [m/s]
283.15 K	800.67	1153.3
293.15 K	791.28	1119.6
303.15 K	781.84	1086.6
313.15 K	772.3	1054.2

Conditions	refractive index
[2]	1.3285

O [water] + OCCCO
[3]
Conditions	mass density [kg/m3]	speed of sound [m/s]
283.15 K	999.68	–
313.15 K	–	1529.2

CO [methanol] + OCCCO
[3]
Conditions	mass density [kg/m3]	speed of sound [m/s]
283.15 K	800.67	1153.3
293.15 K	791.28	1119.6
303.15 K	781.84	1086.6
313.15 K	772.3	1054.2

CCO [ethanol] + OCCCO
[3]
Conditions	mass density [kg/m3]	speed of sound [m/s]
283.15 K	798.22	1196.8
293.15 K	789.7	1162.3
303.15 K	781.09	1128.2
313.15 K	772.34	1094.6

O [water]
[1]
Conditions	vapor or sublimation pressure [kPa]
273.15 K	0.593
283.15 K	1.21
293.15 K	2.328
303.15 K	4.251
313.15 K	7.411
323.15 K	12.4
333.15 K	20
343.15 K	31.21
353.15 K	47.3
363.15 K	69.77

Conditions	refractive index
[2]	1.333

OCCCO [propan-1,3-diol]
[1]
Conditions	mass density [kg/m3]	speed of sound [m/s]
283.15 K	1058.85	1659.5
293.15 K	1052.61	1636.3
303.15 K	1046.36	1613.6
313.15 K	1040.07	1591.1

Conditions	refractive index
[2]	1.4393

CCO [ethanol]
[1]
Conditions	mass density [kg/m3]	speed of sound [m/s]
283.15 K	798.22	1196.8
293.15 K	789.7	1162.3
303.15 K	781.09	1128.2
313.15 K	772.34	1094.6

Conditions	refractive index
[2]	1.362
